The numbers were not newly measured in US20160120822A1, “COMPOSITION CONTAINING ROTIGOTINE AND USE THEREOF AND TRANSDERMAL PATCH CONTAINING THE COMPOSITION” (Jiangsu Kangbeide Pharmaceuticals Co. Ltd., priority 2007, published 2016), which cites them from elsewhere.

The conditions of this data set: oral formulations.

Take `CCCN(CCc1cccs1)[C@H]1CCc2c(O)cccc2C1` [Rotigotine]: the “clearance after oral intake” value was “overly high” and the “duration of action after oral intake” value is recorded as “relatively short”.
